Where two headings read alike, the source gives them in different places. Where no end group is shown, it is not given here.
What was measured:
[1] = test system: healthy donors; settings: in vivo
[2] = test system: HLA-A24 restricted antigen peptide-specific T cells (CTL precursors) in PBMCs; type: cell-based, human; settings: background deducted

KFHRVIKDG [CypB 84-9G]
suppressed cases FR ≦ 0.25 [1]: 2/7

AFLGHAAL [ART4 13-4G]
skin test, area of flare [1]: 0 mm × mm | suppressed cases FR ≦ 0.25 [1]: 4/4

RFYIQMCYEL [Flu peptide, reference compound]
IFN-γ production ([2]; protocol A: interval 1 day, 10 stimulations, 11 days, HLA-A24 positive healthy donors): 0 pg/mL | IFN-γ production ([2]; protocol B: interval 2 days, 6 stimulations, 11 days, HLA-A24 positive healthy donors): 227 pg/mL | IFN-γ production ([2]; protocol C: interval 3 days, 5 stimulations, 13 days, HLA-A24 positive healthy donors): 242 pg/mL | IFN-γ production ([2]; protocol D: interval 4 days, 4 stimulations, 13 days, HLA-A24 positive healthy donors): 29 pg/mL | IFN-γ production ([2]; protocol E: interval 5 days, 3 stimulations, 11 days, HLA-A24 positive healthy donors): 16 pg/mL | IFN-γ production ([2]; protocol F: interval 6 days, 3 stimulations, 13 days, HLA-A24 positive healthy donors): 0 pg/mL | IFN-γ production ([2]; protocol G: interval 7 days, 3 stimulations, 21 days, 24-well plate, radiated auto-PBMCs): 150 pg/mL

AFGRHAAL [ART4 13-3G]
suppressed cases FR ≦ 0.25 [1]: 1/4

AFLRGAAL [ART4 13-5G]
suppressed cases FR ≦ 0.25 [1]: 1/4

KFGRVIKDF [CypB 84-3G]
suppressed cases FR ≦ 0.25 [1]: 2/7

KGHRVIKDF
number of donors in whom the skin reaction was significantly decreased (<=0.25 of the rate in redness range) [1]: 1

KFHRGIKDF
number of donors in whom the skin reaction was significantly decreased (<=0.25 of the rate in redness range) [1]: 0

AFLGHAAL
skin reaction [1]: did not induce skin reaction in any of 4 donors

KFGRVIKDF
number of donors in whom the skin reaction was significantly decreased (<=0.25 of the rate in redness range) [1]: 2

KFHRVIKDG
number of donors in whom the skin reaction was significantly decreased (<=0.25 of the rate in redness range) [1]: 2

KFHRVIKGF
number of donors in whom the skin reaction was significantly decreased (<=0.25 of the rate in redness range) [1]: 0

GFLRHAAL [ART4 13-1G]
suppressed cases FR ≦ 0.25 [1]: 0/4

AFLRHGAL [ART4 13-6G]
suppressed cases FR ≦ 0.25 [1]: 1/4

AFLRHAAG
number of donors with a significant decrease in skin reaction [1]: one

AFLRHGAL
number of donors with a significant decrease in skin reaction [1]: one

AFLRGAAL
number of donors with a significant decrease in skin reaction [1]: one

KGHRVIKDF [CypB 84-2G]
suppressed cases FR ≦ 0.25 [1]: 1/7
